Source: patent publication US7456210B2, “Benzyloxy derivatives” (Hoffmann-La Roche Inc., priority 2004, dated 2008)

Each molecule was assayed against T1, human MAO-B (Homo sapiens, UniProt P27338) (assay: MAO-B enzymatic activity, spectrophotometric Amplex Red assay on membranes of transfected EBNA cells). Conditions: membranes of EBNA cells transfected with human MAO-B; substrate tyramine; 30 min preincubation at 37° C., pH 7.4.
T1 construct: expressed in transfected cells; host or cells: EBNA cells (transient transfection); cell membranes used
T1 sequence (P27338 1-520): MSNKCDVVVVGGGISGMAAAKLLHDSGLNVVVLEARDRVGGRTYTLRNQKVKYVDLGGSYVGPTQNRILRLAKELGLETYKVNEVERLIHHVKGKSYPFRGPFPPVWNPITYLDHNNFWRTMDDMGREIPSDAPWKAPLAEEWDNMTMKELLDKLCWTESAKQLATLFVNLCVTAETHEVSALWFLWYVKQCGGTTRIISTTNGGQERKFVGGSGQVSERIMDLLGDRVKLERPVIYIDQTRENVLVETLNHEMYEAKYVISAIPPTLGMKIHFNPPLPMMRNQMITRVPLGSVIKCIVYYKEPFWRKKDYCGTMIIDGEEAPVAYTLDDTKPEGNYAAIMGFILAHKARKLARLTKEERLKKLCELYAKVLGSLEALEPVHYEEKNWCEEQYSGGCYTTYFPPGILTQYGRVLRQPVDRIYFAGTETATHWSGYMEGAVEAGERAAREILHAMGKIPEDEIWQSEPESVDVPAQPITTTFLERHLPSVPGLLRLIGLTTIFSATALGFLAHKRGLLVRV
Format: biochemical
Description: The cDNA's encoding human MAO-A and MAO-B were transiently transfected into EBNA cells using the procedure described by Schlaeger and Christensen [Cytotechnology 15:1-13 (1998)]. After transfection, cells were homogenised by means of a Polytron homogenizer in 20 mM Tris HCl buffer, pH 8.0, containing 0.5 mM EGTA and 0.5 mM phenylmethanesulfonyl fluoride. Cell membranes were obtained by centrifugation at 45,000×g and, after two rinsing step with 20 mM Tris HCl buffer, pH 8.0, containing 0.5 mM EGTA, membranes were eventually re-suspended in the above buffer and aliquots stored at −80° C. until use.
MAO-A and MAO-B enzymatic activity was assayed in 96-well-plates using a spectro-photometric assay adapted from the method described by Zhou and Panchuk-Voloshina [Analytical Biochemistry 253:169-174 (1997)]. Briefly, membrane aliquots were incubated in 0.1 M potassium phosphate buffer, pH 7.4, for 30 min at 37° C. with or without various concentrations of the compounds. After this period, the enzymatic reaction was started by the addition of the MAO substrate tyramine together with 1 U/ml horse-radish peroxidase (Roche Biochemicals) and 80 μM N-acetyl-3,7,-dihydroxyphenoxazine (Amplex Red, Molecular Probes). The samples were further incubated for 30 min at 37° C. in a final volume of 200 μl and absorbance was then determined at a wavelength of 570 nm using a SpectraMax plate reader (Molecular Devices). Background (non-specific) absorbance was determined in the presence of 10 μM clorgyline for MAO-A or 10 μM L-deprenyl for MAO-B.
IC50 values were determined from inhibition curves obtained using nine inhibitor concentrations in duplicate, by fitting data to a four parameter logistic equation using a computer program.
N=C(NO)[C@@H]1CC(=O)N(c2ccc(OCc3cccc(F)c3)cc2)C1 [Example 3, (R)-1-[4-(3-Fluoro-benzyloxy)-phenyl]-N-hydroxy-5-oxo-pyrrolidine-3-carboxamidine] gave an IC50 of 0.018 µM.
Cc1nc([C@@H]2CC(=O)N(c3ccc(OCc4cccc(F)c4)cc3)C2)no1 [Example 4, (R)-1-[4-(3-Fluoro-benzyloxy)-phenyl]-4-(5-methyl-[1,2,4]oxadiazol-3-yl)-pyrrolidin-2-one] gave an IC50 of 0.016 µM.
With CCOC(=O)c1nc([C@@H]2CC(=O)N(c3ccc(OCc4cccc(F)c4)cc3)C2)no1 [Example 5, 3-{(R)-1-[4-(3-Fluoro-benzyloxy)-phenyl]-5-oxo-pyrrolidin-3-yl}-[1,2,4]oxadiazole-5-carboxylic acid ethyl ester] the IC50 was 0.043 µM.
NC(=O)c1nc([C@@H]2CC(=O)N(c3ccc(OCc4cccc(F)c4)cc3)C2)no1 [Example 6, 3-{(R)-1-[4-(3-Fluoro-benzyloxy)-phenyl]-5-oxo-pyrrolidin-3-yl}-[1,2,4]oxadiazole-5-carboxylic acid amide] showed an IC50 of 0.429 µM.
Cc1nc([C@@H]2CC(=O)N(c3ccc(OCc4cccc(F)c4)cc3)C2)cs1 [Example 8, (R)-1-[4-(3-Fluoro-benzyloxy)-phenyl]-4-(2-methyl-thiazol-4-yl)-pyrrolidin-2-one] was tested, and the IC50 was 0.387 µM.
For O=C1C[C@@H](c2c[nH]cn2)CN1c1ccc(OCc2cccc(F)c2)cc1 [Example 9, (R)-1-[4-(3-Fluoro-benzyloxy)-phenyl]-4-(1H-imidazol-4-yl)-pyrrolidin-2-one], the IC50 was 0.187 µM.
CON(C)C(=O)[C@@H]1CC(=O)N(c2ccc(OCc3cccc(F)c3)cc2)C1 [Example 10, (R)-1-[4-(3-Fluoro-benzyloxy)-phenyl]-5-oxo-pyrrolidine-3-carboxylic acid methoxy-methyl-amide] showed an IC50 of 0.392 µM.
CC(=O)[C@@H]1CC(=O)N(c2ccc(OCc3cccc(F)c3)cc2)C1 [Example 11, (R)-4-Acetyl-1-[4-(3-fluoro-benzyloxy)-phenyl]-pyrrolidin-2-one] gave an IC50 of 0.011 µM.
